Assay results published in patent publication EP0727211A1, “Use of src SH2 specific compounds to treat a bone resorption disease” (SMITHKLINE BEECHAM CORPORATION, priority 1995, dated 1996).

Target: T1, human SH-PTP2 SH2 domain (Homo sapiens, UniProt Q06124)
T1 construct: SH2 domain of human SH-PTP2 (amino acids 1-106); made in house; host or cells: E. coli (pGEX-2T)
T1 sequence (Q06124 1-106): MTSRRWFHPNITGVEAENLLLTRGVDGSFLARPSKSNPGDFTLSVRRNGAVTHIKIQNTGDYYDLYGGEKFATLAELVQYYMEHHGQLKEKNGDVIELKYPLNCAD
Assay: SH2 domain / pY peptide binding assay (ELISA-based, 96 well plate), SH-PTP2 SH2
Details: for Ki: Ki calculated from IC50 by the expanded equation, Table II; for IC50: cloned human SH2 domain fusion protein, 0.1 uM biotinylated pY peptide, Table I
Description: The inhibitory activity of compounds at the different human SH2 domains was determined in vitro using SH2 domains expressed as fusion proteins in E. coli. The SH2 domains used herein were the human forms of the src SH2 domain, Grb2 SH2 domain, lck SH2 domain, fyn SH2 domain, SH-PTP2 SH2 domain, p85 SH2 domain and hcp SH2 domain.
Fusion proteins having the structure GST-X-SH2 were prepared as described in the GST gene fusion kit system available from Pharmacia (New Jersey). GST is the tagging sequence glutathione s-transferase epitope (SEQ ID NO: 8) for fyn, Grb2 and SH-PTP2 and is the tagging sequence glutathione s-transferase epitope (SEQ ID NO: 9) for p85. SH2 refers to the SH2 domains of fyn, Grb2, p85 and SH-PTP2 which were expressed and purified using glutathione Sepharose 4B (Pharmacia) according to "Current Protocols in Molecular Biology", ed. FM Ausubel et al., pub. John Wiley and Sons, Inc., (1995), p 16.7.1. X is an appropriate linker, preferably of 6 to 21 base pairs, used to keep the SH2 construct in frame and complement cloning. As such, the sequence of X is not critical. One skilled in the art can readily construct the appropriate linker. The DNA sequence encoding each GST-X-SH2 fusion protein was designed such that the indicated restriction sites (BamH1 and EcoRI) flank the SH2 region. The vector used in the instant experiments was the E. coli expression vector pGEX-2T (Pharmacia) for fyn, Grb2 and SH-PTP2, and pGEX-3X (Pharmacia) for p85. Each of these vectors result in SH2 constructs having additional C-terminal amino acids as described below.
Human SH-PTP2 SH2 domain: The sequence encoding the SH2 domain of human SH-PTP2 (amino acids 1-106))(Bastien, L. et al., Biochem. Biophys. Res. Commun. 196, 124-133 (1993)) was cloned into the BamHI and EcoRI sites of the expression vector pGEX-2T. The SH2 domain including the additional C-terminal amino acids glutamine-phenylalanine-isoleucine-valine-threonine-aspartate (SEQ ID NO: 12) was cloned by PCR techniques known to those skilled in the art to yield the expressed fusion protein GST-X-SH-PTP2.
The binding assays for the SH2 domains and pY peptides were performed in an ELISA-based 96 well plate assay. In Millipore 96 well filter plates, hydrophilic Durapore® (pore size 0.65um Cat. No. MADVN6550), was added 2 ul (50% suspension) of Protein-G Sepharose (available from Pharmacia of N.J. Cat. No. 17-0618-01) and either 2 ul of 2 mg/ml of MAB178. (for gp120/SH2 domain fusion proteins src, lck and hcp) or 0.25 ul of anti-GST polyclonal antisera (available from Pharmacia of N.J.) (for GST/SH2 domain fusion proteins fyn, Grb2, p85 and SH-PTP2). 10 pmol of the subject SH2 domain fusion protein were added to their respective wells. The volume was brought to 100 ul with TBS-T (tris buffered saline plus 0.05% tween-20), incubated and shaken at room trmperature for 1 hr. then washed 1x with TBS-T (4°C). 90 ul of TBS-T were then added to each well. Specific pY biotinylated peptides were diluted to a concentration of 1.0 uM in TBS-T (these peptides can be obtained from Bachem Bioscience of Pennsylvania, Genosys Biotechnologies of Texas and California Peptide Research of California). 10 ul was aliquoted per well to yield a final concentration of 0.1 uM (approx, the Kd for each SH2 domain/peptide pair) and a final volume of 100 ul. The assay plates were incubated until equilibrium binding was attained (3 hr at 4°C with shaking). The assay plates were washed 2 X per well TBS-T (4°C), then 100 ul of SABC (Strepavidin biotinylated horseradish peroxidase complex, available from the Zymed corporation of California cat. no. 93-0043, 1 drop reagent A (streptavidin) and 1 drop of reagent B (AH-biotin conjugated-horseradish peroxidase) per 10 ml of TBS-T, incubated at 37°C for 30 minutes, then cooled to 4°C) was added per well, then incubated at 4°C for 30-60 minutes. The plates were then washed 4 X with TBS-T (4°C) (250 ul/well)/wash). […]

| Compound | Ki [µM] | IC50 [µM] |
| --- | --- | --- |
| N[C@@H](Cc1cc(Br)c(Oc2ccc(O)c(Cc3ccc(O)nn3)c2)c(Br)c1)C(=O)O [Compound 2, L-3,5-Dibromo-3'-(6-oxo-3(1H)-pyridazinylmethyl)-thyronine] | > 1000 | > 300 |
| Cc1nc2sc3c(c2c2c1c(=O)[nH]n2C)CCC1(C3)OCCO1 [Compound 5, 1,4-Dimethyl-8,8-ethylenedioxy-2,3,7,8,9,10-hexahydro-1H-benzo[b]thieno[2,3-b]pyrazolo[3,4-d]pyridin-3-one] | > 1000 | > 300 |
| 4-acetamido-benzamido-trans-4-methyl-cyclohexyl-N-1-(amino-R-2-(methoxy methyl)-pyrrolidine) carboxamide [Compound 8] | > 1000 | > 300 |
| Cc1nc2sc3c(c2c2[nH][nH]c(=O)c12)CCCC3 [Compound 10, 2,3,7,8,9,10-Hexahydro-4-methyl-1H-benzo[b]thieno[2,3-b]pyrazolo[3,4-d]pyridin-3-one] | > 1000 | > 300 |

Now from value to compound:

| Ki [µM] | IC50 [µM] | Compound |
| --- | --- | --- |
| > 1000 | > 300 | Cc1nc2sc3c(c2c2[nH][nH]c(=O)c12)CCC1(C3)OCCO1 [Compound 3, 8,8-Ethylenedioxy-2,3,7,8,9,10-hexahydro-4-methyl-1H-benzo[b]thieno[2,3-b]pyrazolo[3,4-d]pyridin-3-one] |
| > 1000 | > 300 | CCCCCCNC(=O)[C@H]1CC[C@H](CNC(=O)c2ccc([N+](=O)[O-])cc2)CC1 [Compound 7, 4-nitro-benzamido-trans-4-methyl-cyclohexyl-N-hexyl carboxamide] |
| > 1000 | > 300 | CCCNC(=O)[C@H]1CC[C@H](CNC(=O)/C=C/c2ccc(C=O)cc2)CC1 [Compound 9, 4-formyl-E-cinnamido-trans-4-methyl-cyclohexyl-N-(propyl) carboxamide] |
| > 1000 | > 300 | Cc1nnc(SCC2=C(C(=O)O)N3C(=O)[C@@H](NC(=O)C(N)c4ccc(C(=O)O)cc4)[C@H]3SC2)s1 (stereo partly drawn) [Compound 1, 7-[D,L-α-Amino-α-(4-carboxyphenyl)acetamido]-3-[2-(5-methyl-1,3,4-thiadiazolyl)thiomethyl]Δ^3-cephem-4-carboxylic Acid] |
